“And” between values parts separate entries of the source, which are not always exact repeats. Equal values may be shown once. The source made the active and inactive calls.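 Rule for the calls: active = compounds giving half or more protection of infected cells from virus-caused growth loss, again on retest; inactive = the rest.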 Where a SMILES comes first, the peptide text is derived from it. The star is where a group is joined. Cbz = O=C(OCc1ccccc1)*
System: CEM cells HIV-1 protection, formazan growth assay
Test: NCI AIDS Antiviral Assay
Conditions: for IC50: measured here: growth of uninfected CEM cells
In short: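 Screen of anti-HIV-1 activity in human CEM cells using a formazan-based growth measurement at five drug concentrations. Hits with 50% or greater protection were repeated, and confirmation required reproducible complete protection.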

COC(=O)[C@@]12OC[C@]34[C@H]([C@@H](O)[C@@H]1O)[C@@]1(C)CC(=O)C(O)=C(C)[C@@H]1C[C@H]3OC(=O)[C@H](OC(=O)C(N)Cc1ccccc1)[C@@H]24 (some centres not stated) was tested, and the outcome was “inactive”.

For Cc1ccc(S(=O)(=O)OCC2OC(OC3(CO)OC(COS(=O)(=O)c4ccc(C)cc4)C(O)C3O)C(O)C(O)C2O)cc1 (configuration not stated), the EC50 was over 200 µM and the IC50 was over 200 µM.

N=C(N)SCc1ccc(N=C=S)cc1 was tested, and the EC50 was over 200 µM and the IC50 was 83.2 µM.

Cc1cc(C)c(/C=N/NS(=O)(=O)c2ccccc2)c(C)c1 was tested, and the outcome was “inactive”.

Cc1ccccc1N=Cc1ccc(N(CCC#N)S(=O)(=O)c2ccccc2)cc1 gave an EC50 of over 617 µM and an IC50 of 479 µM.

CN=c1nc2n3c(cccc3n1)NC(C)=N2 gave an EC50 of over 100 µM and an IC50 of over 100 µM.

For O[C@@H]1CO[C@H]2[C@@H]1OC[C@@H]2O, the EC50 was over 200 µM and the IC50 was over 200 µM.

CCN1CCC(O)(c2ccc(Cl)cc2)C(C(=O)c2ccc(Cl)cc2)C1 (configuration not stated) was tested, and the outcome was “inactive”.

For O=CCCCC(Sc1ccccc1)Sc1ccccc1, the outcome was “inactive”.

O=C1c2ccccc2CC12CCC1(CC2)OCCO1 gave an EC50 of over 200 µM and an IC50 of over 200 µM.

O=C1C=CC(=O)c2c(O)c3c(c(O)c21)C[C@H](O)[C@H](O)[C@@H]3O was tested, and the EC50 was over 269 µM and the IC50 was 0.389 µM.

Work on O=C1C[C@@H]2OC3=C(C(=O)CCC3)[C@@H]2O1 yielded an EC50 of over 1290 µM and an IC50 of 7.24 µM.

COc1ccccc1C1OC2=C(Nc3ccccc3N2)C1=O (configuration not stated) gave an EC50 of over 170 µM and an IC50 of over 170 µM.

COC(=O)CNC(=O)C(NC(=O)C1CCCN1C(=O)OCc1ccccc1)C(C)C (stereo not drawn) (Cbz-Pro-Val-Gly-OMe; configuration not given here) showed an EC50 of over 224 µM and an IC50 of 37.2 µM.

With Cc1cc(C(F)(F)F)cc(-n2nc(NS(=O)(=O)c3cc(C)c(Cl)cc3S)nc2N)n1 the EC50 was over 200 µM and the IC50 was 166 µM.

[N-]=[N+]=NC1CC(n2cc(Cc3ccccc3)c(N)nc2=O)OC1CO (configuration not stated) was tested, and the EC50 was over 724 µM and the IC50 was over 724 µM.

With Cc1ccc(NC(=S)NNC(=O)c2cc(-c3ccccc3)nc3ccccc23)cc1C the EC50 was over 200 µM and the IC50 was 12.6 µM.

For C/C(=N\NC(=O)CC(=O)Nc1ccccc1Cl)c1cc2cc(N=Nc3ccccc3Cl)ccc2oc1=O, the EC50 was over 18.6 µM and the IC50 was over 18.6 µM.

For O=C1c2ccc3c4ccccc4n(-c4ccccc4)c3c2C(=O)N1c1ccc(Cl)cc1, the outcome was “inactive”.

CC(C)(C)c1cc2c(OP(c3ccccc3)c3ccccc3)c(c1)Cc1cc(C(C)(C)C)cc(c1OP(c1ccccc1)c1ccccc1)Cc1cc(C(C)(C)C)cc(c1OP(c1ccccc1)c1ccccc1)Cc1cc(C(C)(C)C)cc(c1OP(c1ccccc1)c1ccccc1)C2 showed an EC50 of over 1.05 µM and an IC50 of over 1.05 µM.

Molecule CN(C)c1nn2c(-c3ccccc3)nnc2o1 has an EC50 of over 200 µM and an IC50 of over 200 µM.

With O=C1CSC(/C(=C\c2ccc(Cl)cc2)c2nc3ccccc3[nH]2)=N1 the EC50 was over 10 µM and the IC50 was over 10 µM.

Molecule COc1cc(C(F)(F)F)nc(SC)n1 has an EC50 of over 200 µM and an IC50 of over 200 µM.

For CCCc1cc(=O)oc2c3c(cc(OC(C)COC)c12)O[C@H](C)[C@@H](C)C3=O (some centres not stated), the EC50 was over 77.6 µM and the IC50 was 13.8 µM.

With C/C(=N\NC(=S)Nc1ccc(S(N)(=O)=O)cc1)c1ccccn1 the EC50 was over 145 µM and the IC50 was 8.51 µM.

In the case of COC12C(COC(=O)NCCO)C3=C(C(=O)C(C)=C(N)C3=O)N1CC1NC12 (configuration not stated), the EC50 is reported as over 331 µM and the IC50 is reported as 1.15 µM.

COC(=O)c1cc(C(=CCC(=O)N[C@H]2CC[C@@]3(C)[C@@H](CC[C@@H]4[C@@H]3CC[C@]3(C)[C@@H]([C@H](C)CCCC(C)C)CC[C@@H]43)C2)c2cc(Cl)c(OC)c(C(=O)OC)c2)cc(Cl)c1OC showed an EC50 of over 200 µM and an IC50 of over 200 µM.

CCN1CCC(O)(c2ccccc2)C(C(=O)c2ccccc2)C1 (configuration not stated) showed an EC50 of over 646 µM and an IC50 of 33.9 µM.

For Nc1ccn(CCO)c(=O)n1, the EC50 was over 1620 µM and the IC50 was over 1620 µM.

CC1(C)OCC(CO)(CO)CO1 showed an EC50 of over 1410 µM and an IC50 of over 1410 µM.

FC(F)(F)P1C2C=CC(CC2)C1(F)F (configuration not stated) gave an EC50 of over 251 µM and an IC50 of over 251 µM.

In the case of CC(=O)OCC1OC(n2c(C)c(C(C)=O)c(-c3ccco3)c(C#N)c2=S)C(OC(C)=O)C(OC(C)=O)C1OC(C)=O (configuration not stated), the EC50 is reported as over 200 µM and the IC50 is reported as 112 µM and 87.1 µM.

Molecule O=C(Nc1ccc(N=Nc2ccc(O)c(C(=O)O)c2)cc1)Nc1ccc(N=Nc2ccc(O)c(C(=O)O)c2)cc1 has an EC50 of over 200 µM and an IC50 of 141 µM.

CC1=[N+]([O-])C(C)(C)N(N=O)C1(C)C was tested, and the EC50 was over 200 µM and the IC50 was over 200 µM.

In the case of N#CC(C#N)=Cc1ccccc1C(=O)O, the EC50 is reported as over 200 µM and the IC50 is reported as 110 µM.

With Cn1c(=O)[nH]c2c([nH]c(=O)c(=O)n2C)c1=O the EC50 was over 200 µM and the IC50 was over 200 µM.

COC1/C=C/OC2(C)Oc3c(C)c(O)c4c(O)c(cc(OCC(=O)N(C)C)c4c3C2=O)NC(=O)/C(C)=C/C=C/C(C)C(O)C(C)C(O)C(C)C(OC(C)=O)C1C (configuration not stated) showed an EC50 of over 200 µM and an IC50 of 31.6 µM.

CCOC(=O)c1ccc(N2C(=O)/C(=C/c3ccc(N(CCC#N)CCC#N)cc3)N=C2c2cc([N+](=O)[O-])ccc2Cl)cc1 was tested, and the EC50 was over 12 µM and the IC50 was over 12 µM.

In the case of CNc1ccc(Cl)cc1S(=O)(=O)c1ccccc1Br, the EC50 is reported as over 200 µM and the IC50 is reported as 3.89 µM.

Work on COC1CN(C)C(=Nc2cccc3ccccc23)S1 (configuration not stated) yielded an EC50 of over 200 µM and an IC50 of 112 µM.

Molecule COC(=O)C1(NC(=O)C(CC(=O)OCc2ccccc2)NC(=O)OCc2ccccc2)CCCCCC1 (configuration not stated) has an EC50 of over 200 µM and an IC50 of 107 µM.

Source: PubChem BioAssay AID179 (DTP/NCI, 2004)
